According to patent publication US9073926B2, “Heterocyclic compounds containing a pyrrolopyridine or benzimidazole core” (Boehringer Ingelheim International GmbH, priority 2009, dated 2015):

molecular target: Human RSK2 (Homo sapiens (Human), UniProt P51812); assay: Human RSK2 Assay (Kinase Glo Plus, residual ATP); format: biochemical; settings: 0.75 nM His-RSK2, 0.75 μM ATP, 1.0 μM S6 Kinase/RSK Substrate Peptide 1
Procedure: Experimental Method A: Human RSK2 Assay
Compounds are assessed for their ability to inhibit the phosphorylation of a substrate peptide by RSK2.
Human RSK2 protein, purchased from Invitrogen, is used to measure kinase activity utilizing Kinase Glo Plus (Promega) a homogeneous assay technology, which uses a luciferin-luciferase based ATP detection reagent to quantify residual ATP. The assay is performed using 0.75 nM His-RSK2, 0.75 μM ATP and 1.0 μM S6 Kinase/RSK Substrate Peptide 1 (Upstate, catalog #12-124), in assay buffer consisting of 25 mM HEPES, pH 7.5, 10 mM MgCl2, 5 mM MnCl2, 50 mM KCl, 0.2% BSA, 0.01% CHAPS, 100 μM Na3VO4, 0.5 mM DTT, and 1% DMSO. Solutions of test compounds at various concentrations are prepared by 1:3 fold serial dilution of a 1 mM solution of compound in DMSO. The DMSO solutions are further diluted with assay buffer to a final concentration of DMSO of 5%.
The assay is performed in a 384 well, white, non-binding plate (Corning, catalogue #3574). Solutions of test compounds (10 μL) are transferred to a dry assay plate, followed by addition of 20 μL kinase and 20 μL ATP+Substrate Peptide 1 described above. The kinase reaction mixture is incubated for 90 minutes at 28° C. followed by addition of 30 μL of ATP detection reagent for 15 minutes at room temperature. The relative light unit (RLU) signal is measured on a LJL Analyst (Molecular Devices) in luminescence mode using 384 aperture. The RLU signals were converted to percent of control (POC) values using the formula: POC=100*(BCTRL−Signal)/(BCTRL−PCTRL), where Signal is the test well RLU signal, BCTRL is the average of background (negative control), which consists of ATP+peptide and compound buffer, well signals on the plate, and PCTRL is the average of positive control, which consists of kinase, ATP+peptide, and compound buffer, well signals on the plate. For concentration-responsive compounds, POC as a function of test compound concentration are fitted to a 4-parameter logistic equation of the form: Y=A+(B−A)/[1+(x/C)^D], where A, B, C, and D are fitted parameters (parameter B is fixed at zero POC), and x and y are the independent and dependent variables, respectively. The IC50 (50% inhibitory concentration) is determined as the inflection point parameter, C. Experimental Method B: Human RSK2 Trans-Reporter Assay

Chain of Human RSK2 (P51812 whole entry): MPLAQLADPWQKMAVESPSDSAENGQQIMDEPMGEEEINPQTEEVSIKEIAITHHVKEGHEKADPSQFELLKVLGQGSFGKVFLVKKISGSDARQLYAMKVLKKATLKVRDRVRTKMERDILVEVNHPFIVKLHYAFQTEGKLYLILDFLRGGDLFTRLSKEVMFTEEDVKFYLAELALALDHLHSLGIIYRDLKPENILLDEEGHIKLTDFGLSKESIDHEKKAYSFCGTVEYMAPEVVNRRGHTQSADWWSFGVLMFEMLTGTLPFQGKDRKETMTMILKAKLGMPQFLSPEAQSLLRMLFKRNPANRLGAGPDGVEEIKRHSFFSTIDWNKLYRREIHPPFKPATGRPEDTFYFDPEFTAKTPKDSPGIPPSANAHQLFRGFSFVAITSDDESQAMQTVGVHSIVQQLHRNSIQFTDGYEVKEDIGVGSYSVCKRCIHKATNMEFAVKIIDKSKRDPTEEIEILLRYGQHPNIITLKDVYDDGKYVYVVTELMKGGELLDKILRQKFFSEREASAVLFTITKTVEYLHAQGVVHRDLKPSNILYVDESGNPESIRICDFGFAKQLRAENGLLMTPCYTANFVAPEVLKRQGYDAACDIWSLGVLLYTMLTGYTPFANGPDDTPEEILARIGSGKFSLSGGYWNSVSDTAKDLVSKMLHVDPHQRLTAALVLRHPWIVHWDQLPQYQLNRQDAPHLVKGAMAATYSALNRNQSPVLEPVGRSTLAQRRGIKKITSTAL

IC50 | SMILES
9.7 nM | CC(C)(C)n1cc(NC(=O)c2ccc3cc4n(c3n2)CCCNC4=O)cn1 [Example 44, N-(1-tert-butyl-1H-pyrazol-4-yl)-6-oxo-7,8,9,10-tetrahydro-6H-pyrido[3′,2′:4,5]pyrrolo[1,2-a][1,4]diazepine-2-carboxamide]
50 nM | CC1(C)CNC(=O)c2cc3ccc(C(=O)Nc4cnn(C(C)(C)C)c4)nc3n2C1 [Example 45, N-(1-tert-butyl-1H-pyrazol-4-yl)-9,9-dimethyl-6-oxo-7,8,9,10-tetrahydro-6H-pyrido[3′,2′:4,5]pyrrolo[1,2-a][1,4]diazepine-2-carboxamide]
0.39 nM | CC1CCNC(=O)c2cc3ccc(C(=O)Nc4cnn(Cc5ccccc5)c4)nc3n21 (centres unmarked) [Example 46, N-(1-benzyl-1H-pyrazol-4-yl)-10-methyl-6-oxo-7,8,9,10-tetrahydro-6H-pyrido[3′,2′:4,5]pyrrolo[1,2-a][1,4]diazepine-2-carboxamide]
3.8 nM | O=C(Nc1cnn(Cc2ccccc2)c1)c1ccc2cc3n(c2n1)CCCNC3=O [Example 47, N-(1-benzyl-1H-pyrazol-4-yl)-6-oxo-7,8,9,10-tetrahydro-6H-pyrido[3′,2′:4,5]pyrrolo[1,2-a][1,4]diazepine-2-carboxamide]
12 nM | CC1(C)CNC(=O)c2cc3ccc(C(=O)Nc4cnn(Cc5ccccc5)c4)nc3n2C1 [Example 48, N-(1-benzyl-1H-pyrazol-4-yl)-9,9-dimethyl-6-oxo-7,8,9,10-tetrahydro-6H-pyrido[3′,2′:4,5]pyrrolo[1,2-a][1,4]diazepine-2-carboxamide]
6.7 nM | O=C(Nc1nc2cc(Cl)cc(CN3CCOCC3)c2[nH]1)c1ccc2cc3n(c2n1)CCCNC3=O [Example 49, N-[5-chloro-7-(morpholin-4-ylmethyl)-1H-benzimidazol-2-yl]-6-oxo-7,8,9,10-tetrahydro-6H-pyrido[3′,2′:4,5]pyrrolo[1,2-a][1,4]diazepine-2-carboxamide]
55 nM | CC1(C)CNC(=O)c2cc3ccc(C(=O)Nc4nc5cc(Cl)ccc5[nH]4)nc3n2C1 [Example 50, N-(5-chloro-1H-benzimidazol-2-yl)-9,9-dimethyl-6-oxo-7,8,9,10-tetrahydro-6H-pyrido[3′,2′:4,5]pyrrolo[1,2-a][1,4]diazepine-2-carboxamide]
365 nM | Cn1c(NC(=O)c2ccc3cc4n(c3n2)CCCNC4=O)nc2ccccc21 [Example 51, N-(1-methyl-1H-benzimidazol-2-yl)-6-oxo-7,8,9,10-tetrahydro-6H-pyrido[3′,2′:4,5]pyrrolo[1,2-a][1,4]diazepine-2-carboxamide]
2500 nM | Cn1c(NC(=O)c2ccc3cc4n(c3n2)CC(C)(C)CNC4=O)nc2ccccc21 [Example 52, 9,9-dimethyl-N-(1-methyl-1H-benzimidazol-2-yl)-6-oxo-7,8,9,10-tetrahydro-6H-pyrido[3′,2′:4,5]pyrrolo[1,2-a][1,4]diazepine-2-carboxamide]
630 nM | CC(C)n1c(NC(=O)c2ccc3cc4n(c3n2)CCCNC4=O)nc2ccccc21 [Example 53, 6-oxo-N-[1-(propan-2-yl)-1H-benzimidazol-2-yl]-7,8,9,10-tetrahydro-6H-pyrido[3′,2′:4,5]pyrrolo[1,2-a][1,4]diazepine-2-carboxamide]
1300 nM | CC(C)n1c(NC(=O)c2ccc3cc4n(c3n2)CC(C)(C)CNC4=O)nc2ccccc21 [Example 54, 9,9-dimethyl-6-oxo-N-[1-(propan-2-yl)-1H-benzimidazol-2-yl]-7,8,9,10-tetrahydro-6H-pyrido[3′,2′:4,5]pyrrolo[1,2-a][1,4]diazepine-2-carboxamide]
140 nM | CCn1c(NC(=O)c2ccc3cc4n(c3n2)CCCNC4=O)nc2ccccc21 [Example 55, N-(1-ethyl-1H-benzimidazol-2-yl)-6-oxo-7,8,9,10-tetrahydro-6H-pyrido[3′,2′:4,5]pyrrolo[1,2-a][1,4]diazepine-2-carboxamide]
195 nM | CCn1c(NC(=O)c2ccc3cc4n(c3n2)CC(C)(C)CNC4=O)nc2ccccc21 [Example 56, N-(1-ethyl-1H-benzimidazol-2-yl)-9,9-dimethyl-6-oxo-7,8,9,10-tetrahydro-6H-pyrido[3′,2′:4,5]pyrrolo[1,2-a][1,4]diazepine-2-carboxamide]
245 nM | CN(C)CCCn1c(NC(=O)c2ccc3cc4n(c3n2)CCCNC4=O)nc2ccccc21 [Example 57, N-{1-[3-(dimethylamino)propyl]-1H-benzimidazol-2-yl}-6-oxo-7,8,9,10-tetrahydro-6H-pyrido[3′,2′:4,5]pyrrolo[1,2-a][1,4]diazepine-2-carboxamide]
2300 nM | CN(C)CCCn1c(NC(=O)c2ccc3cc4n(c3n2)CC(C)(C)CNC4=O)nc2ccccc21 [Example 58, N-{1-[3-(dimethylamino)propyl]-1H-benzimidazol-2-yl}-9,9-dimethyl-6-oxo-7,8,9,10-tetrahydro-6H-pyrido[3′,2′:4,5]pyrrolo[1,2-a][1,4]diazepine-2-carboxamide]
0.2 nM | C[C@@H]1CNC(=O)c2cc3ccc(C(=O)Nc4cnn(Cc5ccccc5)c4)nc3n21 [Example 59, (9R)-N-(1-benzyl-1H-pyrazol-4-yl)-9-methyl-6-oxo-6,7,8,9-tetrahydropyrido[3′,2′:4,5]pyrrolo[1,2-a]pyrazine-2-carboxamide]
12 nM | C[C@H]1CNC(=O)c2cc3ccc(C(=O)Nc4cnn(Cc5ccccc5)c4)nc3n21 [Example 60, (9S)-N-(1-benzyl-1H-pyrazol-4-yl)-9-methyl-6-oxo-6,7,8,9-tetrahydropyrido[3′,2′:4,5]pyrrolo[1,2-a]pyrazine-2-carboxamide]
84 nM | CC(C)n1ncc2cc(NC(=O)c3ccc4cc5n(c4n3)[C@@H](C)CNC5=O)cnc21 [Example 63, (9S)-9-methyl-6-oxo-N-[1-(propan-2-yl)-1H-pyrazolo[3,4-b]pyridin-5-yl]-6,7,8,9-tetrahydropyrido[3′,2′:4,5]pyrrolo[1,2-a]pyrazine-2-carboxamide]
3 nM | C[C@@H]1CNC(=O)c2cc3ccc(C(=O)Nc4cnc5ccccc5c4)nc3n21 [Example 64, (9R)-9-methyl-6-oxo-N-(quinolin-3-yl)-6,7,8,9-tetrahydropyrido[3′,2′:4,5]pyrrolo[1,2-a]pyrazine-2-carboxamide]
34 nM | C[C@H]1CNC(=O)c2cc3ccc(C(=O)Nc4cnc5ccccc5c4)nc3n21 [Example 65, (9S)-9-methyl-6-oxo-N-(quinolin-3-yl)-6,7,8,9-tetrahydropyrido[3′,2′:4,5]pyrrolo[1,2-a]pyrazine-2-carboxamide]
4 nM | CC(C)n1ncc2cc(NC(=O)c3ccc4cc5n(c4n3)[C@H](C)CNC5=O)cnc21 [Example 66, (9R)-9-methyl-6-oxo-N-[1-(propan-2-yl)-1H-pyrazolo[3,4-b]pyridin-5-yl]-6,7,8,9-tetrahydropyrido[3′,2′:4,5]pyrrolo[1,2-a]pyrazine-2-carboxamide]
6.1 nM | O=C(Nc1nc2cc(Cl)ccc2[nH]1)c1ccc2cc3n(c2n1)CCCNC3=O [Example 67, N-(5-chloro-1H-benzimidazol-2-yl)-6-oxo-7,8,9,10-tetrahydro-6H-pyrido[3′,2′:4,5]pyrrolo[1,2-a][1,4]diazepine-2-carboxamide]
0.27 nM | CC1CCNC(=O)c2cc3ccc(C(=O)Nc4cnn(Cc5ccncc5)c4)nc3n21 (centres unmarked) [Example 68, 10-methyl-6-oxo-N-[1-(pyridin-4-ylmethyl)-1H-pyrazol-4-yl]-7,8,9,10-tetrahydro-6H-pyrido[3′,2′:4,5]pyrrolo[1,2-a][1,4]diazepine-2-carboxamide]
15 nM | CCn1c(NC(=O)c2ccc3cc4n(c3n2)C(C)CCNC4=O)nc2ccccc21 (centres unmarked) [Example 69, N-(1-ethyl-1H-benzimidazol-2-yl)-10-methyl-6-oxo-7,8,9,10-tetrahydro-6H-pyrido[3′,2′:4,5]pyrrolo[1,2-a][1,4]diazepine-2-carboxamide]
27 nM | CC1CCNC(=O)c2cc3ccc(C(=O)Nc4nc5ccccc5n4CCCN(C)C)nc3n21 (centres unmarked) [Example 70, N-{[3-(dimethylamino)propyl]-1H-benzimidazol-2-yl}-10-methyl-6-oxo-7,8,9,10-tetrahydro-6H-pyrido[3′,2′:4,5]pyrrolo[1,2-a][1,4]diazepine-2-carboxamide]
54.5 nM | CCn1c(NC(=O)c2ccc3cc4n(c3n2)[C@@H](C)CNC4=O)nc2ccccc21 [Example 71, (9S)-N-(1-ethyl-1H-benzimidazol-2-yl)-9-methyl-6-oxo-6,7,8,9-tetrahydropyrido[3′,2′:4,5]pyrrolo[1,2-a]pyrazine-2-carboxamide]
